In ChEMBL document CHEMBL1201862, “PubChem BioAssay data set” (2004):
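Growth conditions: 96-well plates. Treatment: test compound, 48 hours, 5 concentrations. Analysis: linear interpolation between bracketing concentrations; unreached endpoints set to highest concentration. GI50 is the concentration that inhibits growth by half.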 Calls of active or inactive are those of the source. Rule as the data show it: active = GI50 up to about 1.1 µM and inactive = higher.

Legend:
Test in all cases: inhibition of tumour cell growth, NCI panel, 48 h
786-0 = tested on: 786-0
A498 = tested on: A498
A549 = tested on: A549
CCRF-CEM = tested on: CCRF-CEM
COLO 205 = tested on: COLO 205
HCC 2998 = tested on: HCC 2998
HCT-116 = tested on: HCT-116
HCT-15 = tested on: HCT-15
IGROV-1 = tested on: IGROV-1
K562 = tested on: K562
KM12 = tested on: KM12
LOX IMVI = tested on: LOX IMVI
M14 = tested on: M14
MCF7 = tested on: MCF7
MOLT-4 = tested on: MOLT-4
Malme-3M = tested on: Malme-3M
NCI-H23 = tested on: NCI-H23
OVCAR-4 = tested on: OVCAR-4
OVCAR-8 = tested on: OVCAR-8
RPMI-8226 = tested on: RPMI-8226
SK-OV-3 = tested on: SK-OV-3
SN12C = tested on: SN12C
SNB-19 = tested on: SNB-19
SNB-75 = tested on: SNB-75
SR = tested on: SR
U-251 = tested on: U-251
UACC-257 = tested on: UACC-257
UACC-62 = tested on: UACC-62
UO-31 = tested on: UO-31
ACHN = tested on: ACHN
DU-145 = tested on: DU-145
EKVX = tested on: EKVX
HL-60 = tested on: HL-60
HOP-62 = tested on: HOP-62
HOP-92 = tested on: HOP-92
HT-29 = tested on: HT-29
NCI-H522 = tested on: NCI-H522
OVCAR-3 = tested on: OVCAR-3
OVCAR-5 = tested on: OVCAR-5
PC-3 = tested on: PC-3
RXF 393 = tested on: RXF 393
SF-268 = tested on: SF-268
SF-539 = tested on: SF-539
SK-MEL-28 = tested on: SK-MEL-28
SK-MEL-2 = tested on: SK-MEL-2
SW-620 = tested on: SW-620
T47D = tested on: T47D
TK-10 = tested on: TK-10
Hs-578T = tested on: Hs-578T
MDA-MB-231 = tested on: MDA-MB-231
MDA-MB-435 = tested on: MDA-MB-435
MDA-N = tested on: MDA-N
NCI-H226 = tested on: NCI-H226
NCI/ADR-RES = tested on: NCI/ADR-RES
SF-295 = tested on: SF-295
SK-MEL-5 = tested on: SK-MEL-5
CAKI-1 = tested on: CAKI-1
NCI-H460 = tested on: NCI-H460

Measured: GI50

CO[C@@H]1/C=C\C=C(/C)C(=O)NC2=CC(=O)C(NCCN(C)C)=C(C[C@@H](C)C[C@@H](OC)[C@@H](O)[C@H](C)/C=C(\C)[C@H]1OC(N)=O)C2=O
active: 786-0 0.0286 µM | A549 < 0.01 µM | CCRF-CEM 0.0247 µM | COLO 205 0.0145 µM | HCC 2998 0.015 µM | HCT-116 0.0171 µM | IGROV-1 0.0139 µM | K562 0.0139 µM | KM12 0.0122 µM | LOX IMVI 0.0108 µM | M14 0.0104 µM | MCF7 < 0.01 µM | MOLT-4 0.0303 µM | Malme-3M 0.013 µM | NCI-H23 < 0.01 µM | OVCAR-8 0.0172 µM | RPMI-8226 0.0713 µM | SK-OV-3 0.0137 µM | SN12C 0.0113 µM | SNB-19 0.0292 µM | SNB-75 < 0.01 µM | SR < 0.01 µM | U-251 0.011 µM | UACC-257 0.0159 µM | UACC-62 0.0172 µM | UO-31 0.838 µM
inactive: A498 13.2 µM | OVCAR-4 1.14 µM
0.619 µM: HCT-15

COc1cc([C@@H]2c3cc4c(cc3[C@@H](Nc3ccc(NC(=O)c5cc([N+](=O)[O-])cn5C)cc3)[C@H]3COC(=O)[C@H]23)OCO4)cc(OC)c1O
active: 786-0 0.0627 µM | A549 0.0195 µM | ACHN < 0.0108 µM | COLO 205 0.219 µM | DU-145 < 0.013 µM | EKVX 0.658 µM | HCC 2998 0.223 µM | HCT-116 0.138 µM | HL-60 < 0.0213 µM | HOP-62 0.0198 µM | HOP-92 0.0796 µM | HT-29 0.195 µM | IGROV-1 0.265 µM | K562 0.132 µM | KM12 0.216 µM | M14 0.0771 µM | NCI-H23 0.0401 µM | NCI-H522 0.291 µM | OVCAR-3 0.449 µM | OVCAR-5 0.468 µM | OVCAR-8 0.11 µM | PC-3 0.143 µM | RXF 393 0.352 µM | SF-268 0.118 µM | SF-539 0.0617 µM | SK-MEL-28 0.621 µM | SK-MEL-2 0.938 µM | SNB-19 0.054 µM | SNB-75 0.0614 µM | SR < 0.01 µM | SW-620 0.162 µM | T47D 0.0134 µM | TK-10 0.479 µM | UACC-257 0.658 µM | UACC-62 0.0612 µM | UO-31 0.231 µM
0.307 µM: HCT-15

CSC1=N/C(=C\c2ccc(C)cc2)C(=O)N1CN1CCCCC1
73.8 µM: HCT-15
inactive: 786-0 88.7 µM | A498 > 100 µM | A549 83.4 µM | ACHN 59.6 µM | COLO 205 73.1 µM | DU-145 > 100 µM | EKVX 75.3 µM | HCT-116 84.9 µM | HOP-62 > 100 µM | HOP-92 67.3 µM | HT-29 38.5 µM | Hs-578T 56.5 µM | IGROV-1 46.6 µM | K562 74 µM | KM12 > 100 µM | LOX IMVI 34.3 µM | M14 > 100 µM | MCF7 88.1 µM | MDA-MB-231 > 100 µM | MDA-MB-435 > 100 µM | MDA-N > 100 µM | MOLT-4 > 100 µM | Malme-3M > 100 µM | NCI-H226 > 100 µM | NCI-H23 > 100 µM | NCI-H522 > 100 µM | NCI/ADR-RES 84.7 µM | OVCAR-3 > 100 µM | OVCAR-4 22.4 µM | OVCAR-5 > 100 µM | OVCAR-8 > 100 µM | PC-3 72.4 µM | RPMI-8226 32.3 µM | SF-268 61.8 µM | SF-295 > 100 µM | SK-MEL-28 > 100 µM | SK-MEL-2 > 100 µM | SK-MEL-5 > 100 µM | SK-OV-3 > 100 µM | SN12C > 100 µM | SNB-19 > 100 µM | SNB-75 69.5 µM | SR 89.7 µM | SW-620 44.7 µM | TK-10 > 100 µM | U-251 > 100 µM | UACC-62 > 100 µM | UO-31 37.2 µM

COc1cc(C(=O)N2CCN(C=O)C2=S)cc(OC)c1OC
inactive: RPMI-8226 7.31 µM
active: UO-31 0.0675 µM

CC(C)Oc1c(O)c2c3c(oc(=O)n3C=CC2c2ccccc2F)c1OC(C)C (stereo not drawn)
inactive: 786-0 33.4 µM | A498 38.6 µM | A549 26.8 µM | ACHN 35.7 µM | CAKI-1 38.5 µM | CCRF-CEM 24.8 µM | COLO 205 18.7 µM | DU-145 63.8 µM | EKVX 41.1 µM | HCT-116 21.7 µM | HL-60 20.1 µM | HOP-62 27.5 µM | HOP-92 28.1 µM | HT-29 21.7 µM | Hs-578T 75.7 µM | IGROV-1 44.8 µM | K562 30.5 µM | KM12 29.1 µM | LOX IMVI 17.5 µM | M14 24.8 µM | MCF7 28.8 µM | MDA-MB-231 27.7 µM | MDA-MB-435 26.3 µM | MDA-N 30.9 µM | MOLT-4 18.7 µM | Malme-3M 39.1 µM | NCI-H226 32.6 µM | NCI-H23 30.5 µM | NCI-H460 25 µM | NCI-H522 33.8 µM | NCI/ADR-RES 34.4 µM | OVCAR-3 44.1 µM | OVCAR-4 46 µM | OVCAR-5 20 µM | OVCAR-8 41.8 µM | PC-3 13.5 µM | RPMI-8226 17.3 µM | RXF 393 21 µM | SF-268 64.9 µM | SF-295 25.6 µM | SF-539 22.5 µM | SK-MEL-28 53.8 µM | SK-MEL-2 15.5 µM | SK-MEL-5 18.4 µM | SK-OV-3 > 100 µM | SN12C 38.4 µM | SNB-19 39.3 µM | SNB-75 20.7 µM | SR 16.7 µM | SW-620 32.9 µM | TK-10 40.6 µM | U-251 35.9 µM | UACC-257 28.6 µM | UACC-62 21.1 µM | UO-31 24.4 µM
33 µM: HCT-15
